Data: PubChem BioAssay (NCI)
Several values for one entry are separate records, joined by “and”; a condition that tells them apart may be missing. Equal entries are not always repeated.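 Protocol summary: plate cells (96-well), add compound at 5 concentrations, incubate 48 h, interpolate endpoints linearly. Abbreviation: GI50, concentration required for 50% inhibition of growth. TGI is the concentration that stops growth completely.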

Legend:
Experiment in all cases: NCI tumour cell line growth inhibition, 48 h
RPMI-8226 leukemia = test system: RPMI-8226 leukemia
OVCAR-5 ovarian = test system: OVCAR-5 ovarian
PC-3 prostate = test system: PC-3 prostate
SNB-75 CNS = test system: SNB-75 CNS
K-562 leukemia = test system: K-562 leukemia
SK-MEL-28 melanoma = test system: SK-MEL-28 melanoma
MDA-MB-231 breast = test system: MDA-MB-231 breast
IGROV1 ovarian = test system: IGROV1 ovarian
UACC-257 melanoma = test system: UACC-257 melanoma
HOP-92 NSCLC = test system: HOP-92 NSCLC

Structure (SMILES)	GI50 (RPMI-8226 leukemia)	TGI (RPMI-8226 leukemia)	GI50 (OVCAR-5 ovarian)	TGI (OVCAR-5 ovarian)	GI50 (PC-3 prostate)	TGI (PC-3 prostate)	GI50 (SNB-75 CNS)	TGI (SNB-75 CNS)	GI50 (K-562 leukemia)	TGI (K-562 leukemia)	GI50 (SK-MEL-28 melanoma)	TGI (SK-MEL-28 melanoma)	GI50 (MDA-MB-231 breast)	TGI (MDA-MB-231 breast)	GI50 (IGROV1 ovarian)	TGI (IGROV1 ovarian)	GI50 (UACC-257 melanoma)	TGI (UACC-257 melanoma)	GI50 (HOP-92 NSCLC)	TGI (HOP-92 NSCLC)
O=C1C(Cl)=C(NCc2ccco2)C(=O)c2ccccc21	10.2 µM	> 100 µM	33.8 µM	> 65.1 µM	33.6 µM	> 100 µM	2.25 µM	7.53 µM	4550 nM	> 100 µM	6.89 µM	17.8 µM	18.4 µM	> 81.5 µM	10.9 µM	44 µM	7.81 µM	40 µM	23.2 µM	62.2 µM
C=C(c1ccccc1)[C@@]1(O)CC[C@@H]1N(CC#N)Cc1ccccc1		> 67 µM		> 100 µM		64.3 µM		> 96.5 µM		> 74.3 µM		28.8 µM		27.5 µM		72.6 µM		34 µM		34.9 µM
COc1cccc(/C=N/C(/N=C/c2cccc(OC)c2O)c2cccc(OC)c2O)c1O		> 100 µM		73.8 µM		> 100 µM		48.1 µM		> 100 µM		> 100 µM		> 100 µM		62.8 µM		58.9 µM		> 100 µM
NCCCNCCCCNC(=O)C(O)NC(=O)CCCCCCN=C(N)N (stereo not drawn)	1770 µM	750 µM and > 3790 µM	> 3010 µM	> 5000 µM	1590 µM	> 5000 µM	> 1870 µM	671 µM and > 3170 µM	805000 nM	750 µM and > 3610 µM	> 3670 µM	> 5000 µM	> 2570 µM	> 5000 µM	2620 µM	750 µM and > 5000 µM	> 4100 µM	> 5000 µM	2660 µM	745 µM and > 4350 µM
Cc1cc(C)c(-n2c(-c3ccc(Br)cc3)cs/c2=N\N=C2C=C(C(C)(C)C)C(=O)C(C(C)(C)C)=C2)c(C)c1		> 100 µM		> 100 µM		> 100 µM		57.1 µM		> 100 µM		> 100 µM		> 100 µM		> 100 µM		> 100 µM		> 89.8 µM
Cc1cnc(C(=O)NNc2nc3sc4c(c3c(=O)n2C)C(C)CCC4)cn1 (stereo not drawn)	0.357 µM	> 20 µM	0.491 µM	7.4 µM	0.465 µM	11.2 µM	0.56 µM	5.78 µM	433 nM	> 100 µM	0.537 µM	4.6 µM	0.335 µM	4.04 µM	0.292 µM	2.8 µM	0.353 µM	4.34 µM	0.724 µM	4.57 µM
CC(C)CC(NC(=O)OC(C)(C)C)C(=O)Nc1ccc(Nc2nc(F)nc(-c3c4ccccc4cn3C)n2)cc1 (stereo not drawn)		22.4 µM		> 100 µM		> 100 µM		> 100 µM		> 100 µM		> 100 µM		> 100 µM		> 100 µM		> 100 µM		> 100 µM
CC12CCC(Br)C(C)(C)C1CC=C1C(=O)OCC1O2 (stereo not drawn)		> 60.6 µM		> 53.3 µM		24.2 µM		34.7 µM		> 100 µM		28.6 µM		31.5 µM		17.7 µM		27 µM		34.1 µM
COC(=O)CC[C@H](Cc1ccccc1)NC(=O)c1csc([C@@H](C[C@H](C(C)C)N(C)C(=O)[C@@H](NC(=O)[C@H]2CCCCN2C)C(C)C)OC(C)=O)n1	< 0.0025 µM	> 25 µM	0.00816 µM	> 25 µM	< 0.0025 µM	> 25 µM	< 0.0025 µM	> 25 µM	< 2.5 nM	> 25 µM	> 25 µM	> 25 µM	0.0057 µM	> 25 µM	0.00331 µM	> 25 µM	> 25 µM	> 25 µM	4.93 µM	> 25 µM
CCCCCCCc1cc2c3c(nc4ccccc42)C(=O)c2cccnc2-c3n1	4.27 µM	12.6 µM	4.09 µM	10.7 µM	4.39 µM	10.9 µM	5.11 µM	10.1 µM	1290 nM	> 24.2 µM	5.75 µM	11 µM	6.71 µM	20 µM	3.28 µM	15.1 µM	1.96 µM	3.46 µM	6.34 µM	17 µM
O=C1C(=O)c2cccnc2-c2ncccc21	0.0459 µM	0.399 µM	0.328 µM	1.29 µM	0.208 µM	1.27 µM	0.123 µM	1.4 µM	211 nM	0.848 µM	0.472 µM	1.8 µM	0.14 µM	0.503 µM	0.133 µM	0.413 µM	0.268 µM	0.924 µM	0.175 µM	0.618 µM
O=c1c(-c2ccccc2)coc2cc(OC/C(=N/O)c3ccccc3)ccc12	13.8 µM	53 µM	37 µM	> 100 µM	17.4 µM	46 µM	22.9 µM	79.2 µM	11300 nM	> 100 µM	28.8 µM	> 100 µM	18.2 µM	43.7 µM	17.5 µM	> 100 µM	3.03 µM	9.03 µM	15.3 µM	47.4 µM
CCN(CC)c1ccc(C(=O)c2ccc(N(CC)CC)cc2)cc1	0.519 µM	6.25 µM	4.1 µM	> 100 µM	0.452 µM	> 100 µM	0.458 µM	> 83.6 µM	150 nM	10.2 µM	23.1 µM	> 100 µM	1.23 µM	28.2 µM	0.602 µM	> 100 µM	0.461 µM	> 59.2 µM	0.776 µM	10.9 µM
O=c1c(O)c(-c2cc(O)c(O)c(O)c2)oc2cc(O)cc(O)c12		> 100 µM		> 100 µM		> 100 µM		> 100 µM		> 100 µM		> 100 µM		35.8 µM		> 100 µM		> 100 µM		> 100 µM
O=C1CCc2c(sc3[nH]c(=S)n(Cc4ccc(Cl)cc4)c(=O)c23)C1	0.383 µM		0.743 µM	3.6 µM	0.309 µM	> 35.8 µM	0.387 µM	> 81.4 µM	324 nM	> 100 µM	0.64 µM	> 21.1 µM	0.379 µM	1.68 µM	0.454 µM	> 100 µM	1.33 µM	5.72 µM	0.196 µM	0.816 µM
Cc1ccc(O)c(NC(=O)c2ccc(CNc3ccnc(C(F)(F)F)c3)cc2)c1	2.64 µM	11.3 µM	16.3 µM	69.1 µM	9.5 µM	38 µM	22.5 µM	90.3 µM	1540 nM	17.9 µM	13.8 µM	39.9 µM	3.36 µM	47.2 µM	1.82 µM	16.4 µM	12.2 µM	48.5 µM	5.11 µM	29.8 µM
Cc1cccc(NC(=O)c2cccc([N+](=O)[O-])c2O)c1C		> 87.3 µM		> 89.2 µM		> 100 µM		81.1 µM		> 31.6 µM		> 100 µM		> 100 µM		> 100 µM		> 79.3 µM		49.7 µM
C[N+]1=C(/C=C\C=C\c2ccccc2)C(C)(C)c2ccccc21	1.22 µM	6.53 µM	3.88 µM	13.3 µM	3.54 µM	14.9 µM	3.73 µM	16.2 µM	442 nM	7.28 µM	1.53 µM	3.46 µM	2.36 µM	7.52 µM	2.06 µM	8.2 µM	1.69 µM	4.52 µM	2.35 µM	6.77 µM
CN(Cc1cc(C(C)(C)C)cc(Br)c1O)Cc1cc(C(C)(C)C)cc(Br)c1O		6.79 µM		18.5 µM		9.32 µM		13 µM		14 µM		17.4 µM		6.91 µM		13.5 µM		5.85 µM		12.8 µM
CCNC(=O)O[C@H]1CN[C@H](C#Cc2cc3ncnc(Nc4ccc(OCc5cccc(F)c5)c(Cl)c4)c3s2)C1	5.41 µM	> 23.4 µM	8.98 µM	> 25 µM	5.93 µM	> 25 µM	4.76 µM	> 25 µM	9450 nM	> 25 µM	> 25 µM	> 25 µM	4.35 µM	> 16 µM	2.66 µM	> 25 µM	> 22.7 µM	> 25 µM	0.83 µM	11.4 µM
O=C(OC[C@H]1O[C@H](OC(=O)c2cc(O)c(O)c(OC(=O)c3cc(O)c(O)c(O)c3)c2)[C@H](OC(=O)c2cc(O)c(O)c(OC(=O)c3cc(O)c(O)c(O)c3)c2)[C@@H](OC(=O)c2cc(O)c(O)c(OC(=O)c3cc(O)c(O)c(O)c3)c2)[C@@H]1OC(=O)c1cc(O)c(O)c(OC(=O)c2cc(O)c(O)c(O)c2)c1)c1cc(O)c(O)c(OC(=O)c2cc(O)c(O)c(O)c2)c1	7.35 µM	> 25 µM	4.95 µM	> 25 µM	2.33 µM	> 25 µM	2.37 µM	> 25 µM	9630 nM	> 25 µM	12.8 µM	> 25 µM	0.898 µM	> 25 µM	3.69 µM	> 25 µM	13.4 µM	> 25 µM	10.6 µM	> 25 µM
Cc1ncc(C(=O)Nc2ccc(CN3CCN(C)CC3)c(C(F)(F)F)c2)cc1C#Cc1cnc(N)cc1C#N	0.338 µM	3.5 µM	1.66 µM	4 µM	0.71 µM	3.48 µM	1.21 µM	3.44 µM	1.67 nM	3.21 µM	0.0584 µM	1.69 µM	0.222 µM	1.92 µM	0.103 µM	2.06 µM	0.288 µM	3.12 µM	0.0911 µM	1.38 µM
Cc1cn(-c2cc(NC(=O)c3ccc(C)c(Nc4nccc(-c5cccnc5)n4)c3)cc(C(F)(F)F)c2)cn1	2.29 µM and 2.25 µM	> 100 µM	> 10 µM and 3.48 µM	> 10 µM and 16.4 µM	3.19 µM and 3.23 µM	> 10 µM	8.04 µM and 3.47 µM	> 10 µM and 11.5 µM	2150 nM	> 10 µM and 1.03 µM	1.81 µM and 1.4 µM	5.97 µM and 3.18 µM	3.68 µM and 1.81 µM	> 10 µM and 14.3 µM	2.23 µM and 1.83 µM	5.06 µM and 4.2 µM	4.46 µM and 2.49 µM	> 10 µM and 7.97 µM		> 100 µM
